Results from PubChem BioAssay (NCI).
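Test compounds were applied to cells in 96-well plates for 48 hours at 5 doses. Here, GI50 denotes the concentration required for 50% inhibition of growth. The concentration for full growth arrest is given as TGI.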

Legend:
Assay in all cases: NCI anticancer screen, dose series, 48 h
OVCAR-4 ovarian = system: OVCAR-4 ovarian
HT29 colon = system: HT29 colon
SK-MEL-28 melanoma = system: SK-MEL-28 melanoma
KM12 colon = system: KM12 colon
MOLT-4 leukemia = system: MOLT-4 leukemia
IGROV1 ovarian = system: IGROV1 ovarian
SN12C renal = system: SN12C renal
SK-MEL-5 melanoma = system: SK-MEL-5 melanoma
SR leukemia = system: SR leukemia
NCI-H23 lung = system: NCI-H23 lung
TK-10 renal = system: TK-10 renal
OVCAR-5 ovarian = system: OVCAR-5 ovarian
OVCAR-3 ovarian = system: OVCAR-3 ovarian
SF-268 CNS = system: SF-268 CNS
NCI-H226 lung = system: NCI-H226 lung
NCI-H460 lung = system: NCI-H460 lung
M14 melanoma = system: M14 melanoma
786-0 renal = system: 786-0 renal
T-47D breast = system: T-47D breast
MCF7 breast = system: MCF7 breast
UACC-257 melanoma = system: UACC-257 melanoma
HCC-2998 colon = system: HCC-2998 colon
SF-295 CNS = system: SF-295 CNS
RPMI-8226 leukemia = system: RPMI-8226 leukemia
ACHN renal = system: ACHN renal
HOP-62 NSCLC = system: HOP-62 NSCLC
EKVX NSCLC = system: EKVX NSCLC
OVCAR-8 ovarian = system: OVCAR-8 ovarian

COc1cc2c(cc1OCCCNC(=O)/C=C1/C[C@H]3C=Nc4cc(OCc5ccccc5)c(OC)cc4C(=O)N3C1)NC(=O)[C@@H]1CCCN1C2=O
GI50 (OVCAR-4 ovarian): 73.8 µM
TGI (OVCAR-4 ovarian): > 100 µM
GI50 (HT29 colon): 45.2 µM
TGI (HT29 colon): > 100 µM
GI50 (SK-MEL-28 melanoma): > 100 µM
TGI (SK-MEL-28 melanoma): > 100 µM
GI50 (KM12 colon): 47.5 µM
TGI (KM12 colon): > 100 µM
GI50 (MOLT-4 leukemia): 29.6 µM
TGI (MOLT-4 leukemia): > 100 µM
GI50 (IGROV1 ovarian): > 100 µM
TGI (IGROV1 ovarian): > 100 µM
GI50 (SN12C renal): 18.4 µM
TGI (SN12C renal): > 100 µM
GI50 (SK-MEL-5 melanoma): 22.5 µM
TGI (SK-MEL-5 melanoma): 68.1 µM
GI50 (SR leukemia): 17.5 µM
TGI (SR leukemia): 49.2 µM
GI50 (NCI-H23 lung): > 100 µM
TGI (NCI-H23 lung): > 100 µM
GI50 (TK-10 renal): > 100 µM
TGI (TK-10 renal): > 100 µM
GI50 (OVCAR-5 ovarian): 93.5 µM
TGI (OVCAR-5 ovarian): > 100 µM
GI50 (OVCAR-3 ovarian): > 100 µM
TGI (OVCAR-3 ovarian): > 100 µM
GI50 (SF-268 CNS): 39.6 µM
TGI (SF-268 CNS): > 100 µM
GI50 (NCI-H226 lung): 69.5 µM
TGI (NCI-H226 lung): > 100 µM
GI50 (NCI-H460 lung): 38.9 µM
TGI (NCI-H460 lung): > 100 µM
GI50 (M14 melanoma): 55.3 µM
TGI (M14 melanoma): > 100 µM
GI50 (786-0 renal): 51 µM
TGI (786-0 renal): > 100 µM
GI50 (T-47D breast): > 100 µM
TGI (T-47D breast): > 100 µM
GI50 (MCF7 breast): 32 µM
TGI (MCF7 breast): > 100 µM
GI50 (UACC-257 melanoma): > 100 µM
TGI (UACC-257 melanoma): > 100 µM
GI50 (HCC-2998 colon): 60.3 µM
TGI (HCC-2998 colon): > 100 µM
GI50 (SF-295 CNS): 84.7 µM
TGI (SF-295 CNS): > 100 µM
GI50 (RPMI-8226 leukemia): 43.6 µM
TGI (RPMI-8226 leukemia): > 100 µM
GI50 (ACHN renal): > 100 µM
TGI (ACHN renal): > 100 µM
GI50 (HOP-62 NSCLC): 41.3 µM
TGI (HOP-62 NSCLC): > 100 µM
GI50 (EKVX NSCLC): > 100 µM
TGI (EKVX NSCLC): > 100 µM
GI50 (OVCAR-8 ovarian): > 100 µM
TGI (OVCAR-8 ovarian): > 100 µM
